Structures can show the parent of a compound that is named as a salt.

The test system of one data set is cyclooxygenase. The data set is described as follows: standard assay system using polymorphonuclear leukocytes, HHT or TXB2 production. It is filed as cell-based. Particulars: polymorphonuclear leukocytes from guinea pig (whole cells), [1-14C] arachidonic acid, 37°C, 5 minutes; production of HHT or TXB2; read-out: concentrations for 50% inhibitions on cyclooxygenase. As for the experimental part:
Therefore, it is comfirmed that the compound (a) inhibits both enzymes at the same time at a very low concentration, and that the compounds (b), (c) and (d) inhibit 5-lipoxygenase slightly specifically at a very low concentration.
The experiments for screening using polymorphonuclear leukocytes were carried out as follows: The reaction mixture (0.1 ml) containing 5 µmole of potassium phosphase at pH 7.4, 0.1 µmole of calcium chloride, polymorphonuclear leukocytes prepared from guinea pigs (4 x 10^7 cells) and test compound was preincubated for 5 minutes at 37°C. The reaction was started by the addition of [1-^14C] arachidonic acid (2.2 x 10^3 dpm, 1.8 pmole), followed by the incubation at 37°C for 5 minutes. The reaction was terminated by the addition of 0.3 ml of a mixture of ether/methanol/lM citric acid (30/4/1). The organic phase (20 µl) was applied to silica gel plate. Thin layer chromatography was performed to separate each product with solvent system of ether/petroleum ether/acetic acid (85/15/0.1).
Activities of 5-lipoxygenase and cyclooxygenase were calculated from the measurements of the productions of 5-HETE, and 12L-hydroxy-5, 8, 10-[…] acid (i.e. HHT) or thromboxane B2 (i.e. TXB2) respectively. [it has been known that HHT and TXB2 were the last products of the system concerning cyclooxygenase in the arachidonate cascade.] The concentrations for 50% inhibitions on 5-lipoxygenase and on cyclooxygenase were evaluated by using the concentrations of compounds of the present invention required 50% inhibitions on the productions of 5-HETE, and HHT or TXB2.
With `CCOC(=O)/C=C/c1ccc(O)c(N)c1` [Example 1(d), 2-Amino-4-[2-ethoxycarbonyl-(1E)-vinyl]-phenol hydrochloride], the IC50 stood at 2200 nM.

As to `Nc1cc(/C=C/C(=O)OCc2ccc(-c3ccccc3)cc2)ccc1O` [Example 1(h), 2-Amino-4-[2-[4-biphenylmethbxycarbonyl]-(1E)-vinyl]-phenol], the IC50 amounted to 10000 nM.

As to `CCOC(=O)/C=C/c1cc(Sc2ccccc2)cc(N)c1O` [Example 1(j), 2-Amino-6-[2-ethoxycarbonyl-(lE)-vinyl]-4-phenylthiophenol hydrochloride], the IC50 is 600 nM.

For the compound `CCOC(=O)/C=C/c1cccc(N)c1O` [Example 1, 2-Amino-6-[2-ethoxycarbonyl-(lE)-vinyl]-phenol hydrochloride], the IC50 was found to be 1000 nM.

A further data set has as its system mice. The data set is described as follows: acute toxicity by intravenous injection. It is filed as in vivo. To be noted: intravenous injection to tail vein, doses of 30 mg/Kg. As for the experimental part:
On the other hand, all extent of the compounds of the present invention were confirmed that their acute toxicities were more than 30 mg/Kg by intravenous injection. Therefore, the compounds of the present invention may be considered to be sufficiently safe and suitable for medical use.
As for `CCOC(=O)/C=C/c1cc(Cl)cc(N)c1O.Cl` [Example 1(a), 2-Amino-4-chloro-6-[2-ethoxycarbonyl-(1E)-vinyl]phenol hydrochloride], the “dead cases in test of acute toxicity” value was “no dead case in 21 cases”.

For the compound `CCOC(=O)/C=C/C=C/c1cc(Cl)cc(N)c1O` [Example 1(b), 2-Amino-4-chloro-6-[4-ethoxycarbonyl-(lE, 3E)-butadienyl]phenol hydrochloride], the “dead cases in test of acute toxicity” value is “no dead case in 21 cases”.

Take `COC(=O)/C=C/c1cc(N)c(O)c(OC)c1.Cl` [Example 1(e), 2-Amino-6-methoxy-4-[2-methoxycarbonyl-(1E)-vinyl]phenol hydrochloride]: the “dead cases in test of acute toxicity” value is on record as “no dead case in 21 cases”.

The record behind these values is patent EP0081321A1, “2-Aminophenol derivatives” (ONO PHARMACEUTICAL CO., LTD., priority 1981, dated 1983).
